Test results taken from patent publication US6720136B2, “Solid phase quenching systems” (V. I Technologies, Inc., priority 1998, dated 2004).

Experiment: Quenching of ethyleneimine dimer in whole CPD human blood, EID concentration in plasma and RBC fractions by HPLC
Experimental: 50 μl of 120 mM ethyleneimine dimer (EID, PEN102) in 0.25 M NaH2PO4 was added to 0.9 ml of whole human CPD blood (final concentration of EID was 6 mM, 6 μmole total), and incubated at 23° C. for 4 hours. At the end of the 4-hour incubation period, 68 mg (50 μmole-equivalents of phosphothiomonoester groups) of ArgoPore-Thiophosphate support (prepared as described in Example 2) was added. In the parallel experiment, 50 μl of 1 M Na2S2O3 (final concentration 50 mM) was added to same amount of EID treated blood. Both samples were allowed to incubate for 2 hours at 23° C. The red blood cell (RBC) and plasma fraction of the blood were separated by centrifugation (10,000 rpm, 5 min), and the RBCs were opened by adding 9 volumes of water. The concentration of EID was determined in the RBC fraction and in the plasma fraction of the blood by HPLC (FIG. 6).

With `O=S(O)(O)=S` [sodium thiosulfate] the “concentration of ethyleneimine dimer in plasma fraction after quenching” value (6 mM EID for 4 hours at 23° C., then quencher (50 μmole-equivalents support or 50 mM Na2S2O3) for 2 hours at 23° C., plasma) was 6.8 µg/mL, the “concentration of ethyleneimine dimer in red blood cell fraction after quenching” value (6 mM EID for 4 hours at 23° C., then quencher (50 μmole-equivalents support or 50 mM Na2S2O3) for 2 hours at 23° C., red blood cells) was 2.2 µg/mL and the “quenching of ethyleneimine dimer in blood (in words)” value (6 mM EID, quencher 2 hours at 23° C.) was “capable of quenching ethyleneimine dimer”.
